The values below come from publication PMC8512870, “Anti-Fungal Hevein-like Peptides Biosynthesized from Quinoa Cleavable Hololectins” (Molecules, 2021).

SMILES strings stand for the structures. Where a SMILES comes first, the peptide text is derived from it. Bridges are numbered along the chain shown (N, C = ends). Bounds are passed on as bounds.

The nature of one data set: Stability in human serum. It is filed as in vitro ADME. To be noted: RP-HPLC peak area and MALDI-TOF MS, n = 3. On the procedure:
(§1) Assessments of thermal, acidic and proteolytic stability were performed as previously described. Purified chenotide cQ2 was incubated at the stated conditions and recommended buffer solution. At each time interval, samples were aliquoted in triplicate and RP-UPLC was performed. The area under the peak was used to determine the amount of chenotide present before and after treatment.

The next data set concerns aminopeptidase I. The data set is described as follows: Proteolytic stability, aminopeptidase I. Particulars: recommended buffer, RP-HPLC peak area and MALDI-TOF MS, n = 3. It is filed as in vitro ADME. The method, then: as §1
The subject of the next data set is pepsin. The data set is described as follows: Proteolytic stability, pepsin. It is filed as in vitro ADME. Particulars: recommended buffer, RP-HPLC peak area and MALDI-TOF MS, n = 3. On the procedure:
as §1

A short description of another data set: Stability in horse serum. The data set is classed as in vitro ADME. Particulars: RP-HPLC peak area and MALDI-TOF MS, n = 3. On the procedure: as §1
For data set [1], the system named is Curvularia lunata (CICC 40301). Put plainly: Microbroth dilution anti-fungal assay. The data set is classed as cell-based. To be noted: spores 1 × 10^5 cells/mL in half-strength potato dextrose broth, 25 °C, 24 h, crystal violet, absorbance 570 nm, listed as chenotide cQ2, read-out: IC50 against Curvularia lunata. On the procedure:
(§2) The half-maximal inhibitory concentration levels (IC50) of peptides were determined by a microbroth dilution assay. Fungal spores were harvested from a 4-day-old actively growing fungal plate and suspended in half-strength potato dextrose broth. Spore suspensions (1 × 10^5 cells/mL) were mixed with peptides at varying concentrations in 96-well microplates and incubated at 25 °C for 24 h. The cells were then fixed with 100% methanol for 15 min and stained for 45 min with crystal violet dye. Excess dye was removed with MilliQ water. Elution was performed using 1:1 (v/v) ethanol/0.1 N HCl. The absorbance was measured at 570 nm.

Data set [2] relates to Rhizoctonia solani (CICC 40259). Put plainly: Microbroth dilution anti-fungal assay. It is filed as cell-based. Particulars: spores 1 × 10^5 cells/mL in half-strength potato dextrose broth, 25 °C, 24 h, crystal violet, absorbance 570 nm, listed as chenotide cQ2, read-out: IC50 against Rhizoctonia solani. On the procedure: as §2
Data set [3] has as its system Alternaria alternata (CICC 2465). Put plainly: Microbroth dilution anti-fungal assay. It is filed as cell-based. To be noted: spores 1 × 10^5 cells/mL in half-strength potato dextrose broth, 25 °C, 24 h, crystal violet, absorbance 570 nm, listed as chenotide cQ2, read-out: IC50 against Alternaria alternata. The method, then: as §2
A general note: In broth dilution the organism is exposed to a series of concentrations in liquid medium.

In data set [4] the test system is Fusarium oxysporum (CICC 2532). The data set is described as follows: Microbroth dilution anti-fungal assay. The data set is classed as cell-based. Particulars: spores 1 × 10^5 cells/mL in half-strength potato dextrose broth, 25 °C, 24 h, crystal violet, absorbance 570 nm, listed as chenotide cQ2, read-out: IC50 against Fusarium oxysporum. The method, then:
as §2

Turning to `CC(C)C[C@@H]1NC(=O)CNC(=O)CNC(=O)[C@@H]2CCCN2C(=O)[C@@H]2CSSC[C@@H]3NC(=O)[C@H](Cc4ccccc4)NC(=O)CNC(=O)[C@H](Cc4ccccc4)NC(=O)[C@H](CCCCN)NC(=O)[C@H](CO)NC(=O)[C@H](CSSC[C@H](NC(=O)[C@H](CCC(=O)O)NC(=O)CNC(=O)[C@H](C)N)C(=O)N[C@@H](C(C)C)C(=O)N[C@@H](CCCNC(=N)N)C(=O)NCC(=O)N[C@@H](CCCNC(=N)N)C(=O)N2)NC(=O)[C@H](CSSC[C@@H](C(=O)NCC(=O)NCC(=O)O)NC(=O)[C@H](Cc2ccc(O)cc2)NC(=O)[C@H](C)NC(=O)[C@@H]2CCCN2C(=O)CNC(=O)[C@H](CO)NC(=O)CNC3=O)NC1=O` [cQ2] (H-AGECVRGRCPGGLCCSKFGFCGSGPAYCGG-OH; disulfide 4-15, 9-21, 14-28), in the data set “Stability in human serum”, the “Peptide retained after human serum treatment” value is recorded as over 80%. In addition, the “Peptide retained after aminopeptidase I treatment” value with aminopeptidase I is over 80%. The “Peptide retained after pepsin treatment” value with pepsin is on record as over 80%. Moreover, the “Peptide retained after horse serum treatment” value in the data set “Stability in horse serum” is on record as over 80%. Further, the IC50 (in general, the concentration needed to halve the response being measured) was about 5 µM in data set [1], about 3000 nM in data set [2], about 9 µM in data set [3] and about 300 nM in data set [4].
